# Assay results taken from patent US20070270403A1 (priority 2003, published 2007).
# Tests used:
# Format in all cases: in vivo, Sprague-Dawley Rattus Norvegicus
# [1] = system: Sprague-Dawley laboratory rats; assay: Locomotor activity (ambulations) by infrared photobeams (clozapine studies); settings: Subacute, cocaine 10 mg/kg i.p. on Day 1
# Description: Locomotor activity (ambulation) was monitored with infrared photobeams at the same time as DA and 5-HT release in NAcc was detected with BRODERICK PROBES® in conjunction with In Vivo Microvoltammetry. The chamber was faradaic, covered with copper to refract possible electrical artifacts (dimensions: 24 in (width) by 18 in (depth) by 23.5 in (height)). A 16 by 16 array of these infrared photobeams, were held in place by an aluminum frame which was situated ¾ in above the Plexiglas floor of the chamber to detect locomotor activity. Photobeams were sampled by a Pentium computer to define the x-y position of the animal within a 1.5 in resolution every 100 msec. When an x-y position was calculated, it was used to define the frequency of locomotor activity in counts. The locomotor activity system is a modified version of an Activity Pattern Monitor (APM) (San Diego Instruments, San Diego, Calif.). Behavioral data is presented in absolute frequency, i.e., number of counts recorded.
# The first hr pre-drug allowed exploratory behavior. Exploratory behavior is defined as open-field behavior of ambulations (forward locomotion) wherein animals respond to the stimuli of a novel environment with high frequency of behavioral counts. The second hr pre-drug allowed the animal to become habituated before treatment.
# In the Acute studies, each drug was administered at the end of the habituation period. Baseline (control) values were taken every five min for the last thirty min of the habituation period at which time drug injection(s) took place. Electrochemical recordings for DA and 5-HT release in NAcc, were continued for two hrs; at the same time, locomotor behavior continued to be monitored and recorded with infrared photobeams. At the end of the 2 hr drug(s) study, animals were then placed back in their home cages.
# In the Subacute studies, which took place twenty-four hrs later, the animals were again placed in the faradaic behavioral chamber and no further drug was administered. Recordings of separate electrochemical signals for DA and 5-HT release in NAcc, were taken for one hr; at the same time, locomotor behavior was monitored and recorded with infrared photobeams.
# (§1) Neurochemical and behavioral data, derived from the last thirty minutes of the habituation period, provided the baseline data. […] Where appropriate, data points in the time course were subjected to 95% Confidence Limits (C.L.).
# [2] = system: Sprague-Dawley laboratory rats; assay: Locomotion (ambulations) by infrared photobeams (risperidone studies); settings: Subacute
# Description: (§2) Behaviors were monitored with infrared photobeams which surrounded the faradaic chamber. Open-field behaviors of locomotion (ambulations) and stereotypy (fine movements of sniffing and grooming) were recorded in sec and repeated every five min for a period of 2 hrs before each treatment and a period of 2 hrs after each treatment. Open-field behaviors were monitored simultaneously with in vivo microvoltammetric recordings of monoamines.
# (§3) The first hr pre-drug, allowed exploratory behavior. Exploratory behavior is defined as open-field behavior of ambulations (forward locomotion) and stereotypy (fine movements of sniffing and grooming), wherein animals respond to the stimuli of a novel environment with a high frequency of behavioral counts. The second hr pre-drug allowed the animal to become habituated before treatment. […] In the acute studies, each drug was administered […]. For the subacute studies, twenty four hrs later, the animals were again placed in the faradaic behavioral chamber and no further drug was administered. Each animal was monitored for possible recovery, withdrawal or after-effects. of each treatment WHILE open-field behaviors of locomotions and stereotypy were monitored with computerized infrared photocell beams which surround the faradaic chamber.
# (§4) The faradaic chamber was made of plexiglas and covered with copper wire to refract possible electrical artifacts (dimensions: 24 inch (width) by 18 inch (depth) by 23.5 inch (height)). A 16 by 16 array of infrared photobeams, held in place by an aluminum frame, was situated ¾ inch above the Plexiglas floor of the chamber to detect locomotor and stereotypic movements. Photobeams were sampled by a Pentium computer to define the x-y position of the animal within a 1.5 inch resolution every 100 msec. When an x-y position was calculated, it was used to define a particular behavioral parameter. This system is a modified version of an Activity Pattern Monitor (APM) (San Diego Instruments, San Diego, Calif.). Behavioral data is presented in terms of Frequency of Events.
# as §1
# [3] = system: Sprague-Dawley laboratory rats; assay: Stereotypy (fine movements of sniffing and grooming) by infrared photobeams (risperidone studies)
# Description: as §2, §3, §4, §1
compound,measurement,setting,value
"COC(=O)[C@H]1[C@@H](OC(=O)c2ccccc2)C[C@@H]2CC[C@H]1N2C [Cocaine, cocaine]",Decrease in locomotor activity on Day 2 compared with Day 1 effects of cocaine,[1],250 counts
same,"Decrease in locomotor activity frequency on Day 2 compared with drug treatment, Day1",[2],about 200 counts
same,"Stereotypy frequency, Day 2 (Subacute)",[3]; 24 hr after cocaine 10 mg/kg i.p. or risperidone 2 mg/kg s.c. + cocaine,40 counts
same,"Decrease in stereotypy frequency on Day 2 compared with drug treatment, Day1","[3]; Subacute, cocaine 10 mg/kg i.p.",about 20 counts
same,"Stereotypy frequency with drug treatment, Day1",[3]; cocaine 10 mg/kg i.p. or risperidone 2 mg/kg s.c. + cocaine,60 counts
